Results: US11220521B2, “Optically-active 2-amino-phosphonoalkane acid, optically-active 2-amino-phosphonoalkane acid salt, and hydrates of these” (priority 2017, dated 2022)

Tests used:
[1] = test system: normal human epidermal cells; assay: Evaluation for glutathione production promoting activity (total glutathione amount, glutathione reductase recycling assay); format: cell-based; conditions: for GSH (pmol/μg-protein) Mean ± S.D.: 24-hour cultivation, n=4; for glutathione production promoting activities compared with Nahlsgen: summary of Tables 5-1 and 5-2
Description: D-2-Amino-8-phosphonooctanoic acid monohydrate obtained in Example 8, which was used as a sample, was evaluated for glutathione production promoting activity by the following method (n=4).
Specifically, normal human epidermal cells were seeded in a 96-well microplate at a density of 2.0×10^4 cells per 96 wells, using a normal human epidermal keratinocyte growth medium HuMedia KG2 (trade name, supplied by Kurabo Industries Ltd.).
After 24 hours from the seeding, the medium was exchanged with a normal human epidermal keratinocyte growth medium HuMedia KB2 (trade name, supplied by Kurabo Industries Ltd.) containing the sample in a predetermined concentration, and the cultivation was continued. As a blank, the cells were cultured by a procedure similar to above, except for not using the sample.
After 24-hour cultivation, the cells were disrupted by ultrasonication using a phosphate buffer containing 100 μM phenylmethylsulfonyl fluoride, and the total glutathione amount was determined by glutathione reductase recycling assay.
Specifically, a suspension of the disrupted cells were mixed with reduced nicotinamide adenine dinucleotide phosphate and glutathione reductase, followed by reaction at 37° C. for 10 minutes.
Next, 0.1 M phosphate buffer (containing 0.5 M EDTA, pH 7.5) containing dissolved 10 mM 5,5′-dithiobis(2-nitrobenzoic acid) was added, and the mixture was incubated for 30 minutes. The absorbance at 450 nm was measured immediately after addition, and after incubation for 30 minutes. The difference in absorbance, which is calculated by subtracting the absorbance immediately after addition from the absorbance after 30-minute incubation, was defined as an index for glutathione synthesis quantity.
The total glutathione amount in the disrupted cell suspension was determined on the basis of a calibration curve plotted using oxidized glutathione. The protein content in the disrupted cell suspension was determined using the Pierce Microplate BCA Protein Assay Kit (Thermo SCIENTIFIC). The glutathione synthesis quantity was evaluated for differences from the untreated specimen (blank) and from the positive object by a significant difference test using Student's t-test. The results of the tests, each of which was performed two times, are given in Tables 4-1 (first test) and 4-2 (second test).
Tests were performed (n=4) to determine glutathione production promoting activity by a procedure similar to above, except for using, as a sample instead of D-2-amino-8-phosphonooctanoic acid monohydrate, D-2-amino-4-phosphonobutanoic acid L-Arg salt obtained in Example 2, or D-2-amino-4-phosphonobutanoic acid D-Arg salt monohydrate obtained in Example 3.
A test as a referential example was also performed by a procedure similar to above, except for using Nahlsgen (generic name: DL-2-amino-4-[(RSp)-(3-carboxymethylphenoxy) (methoxy)phosphoryl]butanoic acid), instead of the sample.

[2] = molecular target: gamma-glutamyl transpeptidase (GGT) (Homo sapiens, UniProt P19440); conditions: known from Patent Literature (PTL) 1; cited from earlier work
Chain of gamma-glutamyl transpeptidase (GGT) (P19440 whole entry, species assumed): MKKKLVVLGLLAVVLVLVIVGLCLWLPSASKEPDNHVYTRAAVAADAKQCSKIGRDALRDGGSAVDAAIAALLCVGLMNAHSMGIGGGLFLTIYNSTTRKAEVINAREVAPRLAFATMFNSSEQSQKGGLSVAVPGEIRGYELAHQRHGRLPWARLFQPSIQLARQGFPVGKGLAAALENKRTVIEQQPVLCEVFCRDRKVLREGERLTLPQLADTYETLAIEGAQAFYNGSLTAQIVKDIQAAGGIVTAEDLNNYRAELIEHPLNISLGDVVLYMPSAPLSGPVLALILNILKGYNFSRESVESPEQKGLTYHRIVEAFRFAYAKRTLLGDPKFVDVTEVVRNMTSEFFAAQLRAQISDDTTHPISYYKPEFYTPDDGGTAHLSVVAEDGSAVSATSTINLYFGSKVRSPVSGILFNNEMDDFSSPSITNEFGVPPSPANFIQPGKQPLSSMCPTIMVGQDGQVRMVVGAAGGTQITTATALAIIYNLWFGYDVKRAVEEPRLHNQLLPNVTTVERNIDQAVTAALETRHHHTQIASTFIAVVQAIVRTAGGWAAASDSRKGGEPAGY

[3] = room temperature; amorphous powdery solid obtained through lyophilization; cited from earlier work
[4] = Table 5-1, first test, 10.00 μmol/L
[5] = Table 5-2, second test, 10.00 μmol/L
[6] = Table 5-2, second test, 50.00 μmol/L
[7] = Table 5-1, first test, 2.00 μmol/L
[8] = Table 5-1, first test, 50.00 μmol/L
[9] = Table 5-1, first test, 250.00 μmol/L
[10] = Table 5-2, second test, 2.00 μmol/L
[11] = Table 5-2, second test, 250.00 μmol/L

Structure (SMILES) | melting point [°C] | GSH (pmol/μg-protein) Mean ± S.D. [1, 4] [pmol/μg-protein] | GSH (pmol/μg-protein) Mean ± S.D. [1, 5] [pmol/μg-protein] | GSH (pmol/μg-protein) Mean ± S.D. [1, 6] [pmol/μg-protein] | GSH (pmol/μg-protein) Mean ± S.D. [1, 7] [pmol/μg-protein] | GSH (pmol/μg-protein) Mean ± S.D. [1, 8] [pmol/μg-protein] | GSH (pmol/μg-protein) Mean ± S.D. [1, 9] [pmol/μg-protein] | GSH (pmol/μg-protein) Mean ± S.D. [1, 10] [pmol/μg-protein] | GSH (pmol/μg-protein) Mean ± S.D. [1, 11] [pmol/μg-protein] | glutathione production promoting activities compared with Nahlsgen [1] | also measured
N[C@@H](CCCCCCP(=O)(O)O)C(=O)O.O (hydrate or solvate) | 73 |  |  |  |  |  |  |  |  |  | 
N[C@H](CCCCCCP(=O)(O)O)C(=O)O.O (hydrate or solvate) [D-2-amino-8-phosphonooctanoic acid monohydrate] | 75.3 |  |  |  |  |  |  |  |  |  | 
COP(=O)(CCC(N)C(=O)O)Oc1cccc(CC(=O)O)c1 (racemic) [Nahlsgen, DL-2-amino-4-[(RSp)-(3-carboxymethylphenoxy)(methoxy)phosphoryl]butanoic acid, reference compound] |  | 44.7 ± 2.7 | 36.2 ± 3.4 | 36.5 ± 3.9 |  |  |  |  |  |  | GGT inhibitor activity [2]: excellent gamma-glutamyl transpeptidase (GGT) inhibitor; deliquescency / decomposition on storage [3]: deliquescent and is liable to decompose at room temperature
N=C(N)NCCC[C@@H](N)C(=O)O.N[C@H](CCP(=O)(O)O)C(=O)O.O [D-2-amino-4-phosphonobutanoic acid D-Arg salt monohydrate] |  | 46.2 ± 1.8 | 35.8 ± 1.2 | 37.3 ± 1.9 | 38.6 ± 3.1 | 36.3 ± 4.0 | 40.9 ± 8.1 | 35.8 ± 1.1 | 37.1 ± 1.7 | significant glutathione production promoting activities comparable to or higher than those of Nahlsgen | 
N=C(N)NCCC[C@H](N)C(=O)O.N[C@H](CCP(=O)(O)O)C(=O)O [D-2-amino-4-phosphonobutanoic acid L-Arg salt] |  | 51.0 ± 1.6 | 35.4 ± 2.1 | 37.2 ± 3.0 | 49.2 ± 7.5 | 43.9 ± 9.3 | 42.9 ± 9.8 | 37.6 ± 2.2 | 36.3 ± 1.5 | significant glutathione production promoting activities comparable to or higher than those of Nahlsgen | 
N[C@H](CCCCCCP(=O)(O)O)C(=O)O.O [D-2-amino-8-phosphonooctanoic acid monohydrate] |  |  |  |  |  |  |  |  |  |  | GSH (pmol/μg-protein) Mean ± S.D. ([1]; Table 4-1, first test, 2.00 μmol/L): 59.5 ± 2.0 pmol/μg-protein; GSH (pmol/μg-protein) Mean ± S.D. ([1]; Table 4-1, first test, 10.00 μmol/L): 60.6 ± 2.3 pmol/μg-protein; GSH (pmol/μg-protein) Mean ± S.D. ([1]; Table 4-1, first test, 50.00 μmol/L): 59.7 ± 8.5 pmol/μg-protein; GSH (pmol/μg-protein) Mean ± S.D. ([1]; Table 4-1, first test, 250.00 μmol/L): 61.0 ± 3.0 pmol/μg-protein; GSH (pmol/μg-protein) Mean ± S.D. ([1]; Table 4-2, second test, 2.00 μmol/L): 35.3 ± 1.7 pmol/μg-protein; GSH (pmol/μg-protein) Mean ± S.D. ([1]; Table 4-2, second test, 10.00 μmol/L): 34.8 ± 1.9 pmol/μg-protein; GSH (pmol/μg-protein) Mean ± S.D. ([1]; Table 4-2, second test, 50.00 μmol/L): 34.8 ± 2.6 pmol/μg-protein; GSH (pmol/μg-protein) Mean ± S.D. ([1]; Table 4-2, second test, 250.00 μmol/L): 33.6 ± 2.3 pmol/μg-protein; glutathione production promoting activity as compared with the blank ([1]; summary of Tables 4-1 and 4-2, versus untreated specimen): significant glutathione production promoting activity
